Data taken from US20250296971A1, “GASTRIC INHIBITORY PEPTIDE RECEPTOR LIGANDS” (priority 2021, published 2025).
Like-named read-outs stand apart in the source and are kept apart here. *1 amine or outer side, *2 acyl side, *3 side chain or, on linkers, in order; H or OH if unused. Where a SMILES comes first, the peptide text is derived from it. Bridges are numbered along the chain shown (N, C = ends). Side-chain parts run from the residue outwards. [ ]: non-standard residue; d: D form. The star is where a group is joined. DOTA(In) = O=C1CN2CCN3CCN(CC(=O)*)CCN(CC2)CC(=O)[O][In]([O]1)[O]C(=O)C3; NH(1-deoxy-D-glucityl) = OC[C@@H](O)[C@@H](O)[C@H](O)[C@@H](O)CN*; Pro(trans-4-NH2) = O=C([C@@H]1C[C@@H](N[*:3])CN1[*:1])[*:2]; DOTA = O=C(O)CN1CCN(CC(=O)O)CCN(CC(=O)*)CCN(CC(=O)O)CC1; Trp(5-Cl) = N[C@@H](Cc1c[nH]c2ccc(Cl)cc12)C(=O)O; Pyridine(2,6-diCH2) = c1cc(C[*:1])nc(C[*:2])c1; Phe(3-Cl) = N[C@@H](Cc1cccc(Cl)c1)C(=O)O; Glutaryl = O=C(CCCC(=O)[*:2])[*:1]; X7 = c1cc(CSCCN[*:2])cc(C[*:1])c1; Hyp = O=C(O)[C@@H]1C[C@@H](O)CN1; X1 = O=C(CN1CCC(N[*:1])CC1)[*:2]; pS = N[C@@H](COP(=O)(O)O)C(=O)O; Api = NC1(C(=O)O)CCNCC1; Thp = NC1(C(=O)O)CCOCC1; Aib = CC(C)(N)C(=O)O

T1: human GIP receptor (bioGIPR) (Homo sapiens, UniProt P48546)
T1 construct: Biotinylate extracellular of the human GIP receptor (bioGIPR, Proteros biostructures GmbH, lot #02/2b); purchased Proteros biostructures GmbH lot #02/2b
T1 sequence (P48546 22-138 limits assumed): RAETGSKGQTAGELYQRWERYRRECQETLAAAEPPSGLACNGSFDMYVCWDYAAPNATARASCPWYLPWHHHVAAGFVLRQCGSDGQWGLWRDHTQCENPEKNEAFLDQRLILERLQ

T2: GIPR (CHO-K1-hGIPR cells) (Homo sapiens, UniProt P48546)
T2 construct: host or cells: CHO-K1
T2 sequence (P48546 22-466): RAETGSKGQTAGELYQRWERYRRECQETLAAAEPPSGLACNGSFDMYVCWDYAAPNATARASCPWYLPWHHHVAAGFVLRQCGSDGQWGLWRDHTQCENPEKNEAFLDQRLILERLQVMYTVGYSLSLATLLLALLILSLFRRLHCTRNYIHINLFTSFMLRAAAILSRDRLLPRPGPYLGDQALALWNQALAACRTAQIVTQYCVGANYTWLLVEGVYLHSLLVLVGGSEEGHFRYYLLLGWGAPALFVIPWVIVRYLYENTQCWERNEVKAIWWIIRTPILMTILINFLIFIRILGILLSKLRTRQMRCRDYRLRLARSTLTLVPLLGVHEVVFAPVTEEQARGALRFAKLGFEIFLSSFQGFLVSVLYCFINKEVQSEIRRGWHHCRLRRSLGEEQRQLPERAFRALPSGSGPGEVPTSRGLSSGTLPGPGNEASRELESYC

B1: Ac-Asp-Trp-5Clw-Hyp-Pse-leu-[Cys(2Lut)-Thp-Leu-Ile-Cys]-NH2 (peptide)
peptide: Ac-DW[Trp(5-Cl)][Hyp][pS][dL]C[Thp]LIC-NH2
modifications: linker 7-11 via Pyridine(2,6-diCH2)
B2: Ac-Asp-Mcf-5Clw-Hyp-Glu-leu-[Cys(2Lut)-Thp-Leu-Ile-Cys]-NH2 (peptide)
peptide: Ac-D[Phe(3-Cl)][Trp(5-Cl)][Hyp]E[dL]C[Thp]LIC-NH2
modifications: linker 7-11 via Pyridine(2,6-diCH2)
SMILES: CC[C@H](C)[C@@H]1NC(=O)[C@H](CC(C)C)NC(=O)C2(CCOCC2)NC(=O)[C@@H](NC(=O)[C@@H](CC(C)C)NC(=O)[C@H](CCC(=O)O)NC(=O)[C@@H]2C[C@@H](O)CN2C(=O)[C@H](Cc2c[nH]c3ccc(Cl)cc23)NC(=O)[C@H](Cc2cccc(Cl)c2)NC(=O)[C@H](CC(=O)O)NC(C)=O)CSCc2cccc(n2)CSC[C@@H](C(N)=O)NC1=O

Legend:
[1] = target: T1, human GIP receptor (bioGIPR); assay: Surface plasmon resonance (SPR) based binding assay; conditions: Single Cycle Kinetic mode, 25° C.; for t1/2 Category: SPR dissociation half-life; for Kd: SPR, 1:1 Langmuir binding model, read-out: pKD Category (converted)
How it was run: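 Binding was measured at 25 °C by single-cycle kinetics against a reference flow cell, with blank-run and drift correction, after capturing biotinylated GIPR extracellular domain to ~3500 RU. Running buffer: HBST, 0.1% DMSO. A 1:1 Langmuir model gave kinetic rates, KD, t1/2 and pKD.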

[2] = target: T2, GIPR (CHO-K1-hGIPR cells); assay: FACS binding assay; conditions: read-out: pIC50 Category (converted)
How it was run: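 Median fluorescence in the APC channel, measured on washed CHO-K1 cells overexpressing human GIPR, was fitted by four-parameter logistic regression against peptide concentration to yield EC50 or IC50 values. Secondary labelling used APC-streptavidin (1 μg/mL, 30 min, ice).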

[3] = target: human Gastric Inhibitory Peptide Receptor (GIPR) (human) (UniProt P48546); assay: FACS competition vs biotinylated GIP-057 on CHO-K1-hGIPR cells; category A: pIC50 >8.0
[4] = competition with 20 nM GIP-057, 4° C., 1 hour

Molecule	t1/2 Category [1]	Kd [1]	IC50 [2, 4]	IC50 ([2]; competition with 20 nM GIP-057, 4° C. for 1 hour)	pIC50 [3]
CC[C@H](C)[C@@H]1NC(=O)[C@H](CC(C)C)NC(=O)C2(CCNCC2)NC(=O)[C@@H](NC(=O)[C@@H](CC(C)C)NC(=O)[C@H](CCC(=O)O)NC(=O)[C@@H]2C[C@@H](N)CN2C(=O)[C@H](Cc2c[nH]c3ccc(Cl)cc23)NC(=O)[C@H](Cc2c[nH]c3ccccc23)NC(=O)[C@H](CC(=O)O)NC(=O)CCC(=O)NCCCOCCOCCOCCCNC(=O)CN2CCN(CC(=O)O)CCN(CC(=O)O)CCN(CC(=O)O)CC2)CNCc2cccc(n2)CSCCNC1=O [GIP-113, DOTA-Ttds-Asp-Trp-5Clw-Tap-Glu-leu-[Dap(2Lut)-Apc-Leu-Ile-AET]]	A (t1/2 values>15 min)	< 1 nM	< 10 nM	–	–
CC[C@H](C)[C@@H]1NC(=O)[C@H](CC(C)C)NC(=O)C(C)(C)NC(=O)[C@@H](NC(=O)[C@@H](CC(C)C)NC(=O)[C@H](CCC(=O)O)NC(=O)[C@@H]2CCCN2C(=O)[C@H](Cc2c[nH]c3ccc(Cl)cc23)NC(=O)[C@H](Cc2c[nH]c3ccccc23)NC(=O)[C@H](CC(=O)O)NC(=O)CN2CCC(NC(=O)CN3CCN4CCN5CCN(CC3)CC(=O)[O][In]([O]C(=O)C4)[O]C(=O)C5)CC2)CSCc2cccc(c2)CSCCNC1=O [GIP-153, InDOTA-APAc-Asp-Trp-5Clw-Pro-Glu-leu-[Cys(3MeBn)-Aib-Leu-Ile-AET]] ({DOTA(In)}-[X1]DW[Trp(5-Cl)]PE[dL]C[Aib]LI; linker 8-C via X7)	–	< 1 nM	< 10 nM	–	–
CC[C@H](C)[C@@H]1NC(=O)[C@H](CC(C)C)NC(=O)C2(CCOCC2)NC(=O)[C@@H](NC(=O)[C@@H](CC(C)C)NC(=O)[C@H](CCCNC(=N)N)NC(=O)[C@@H]2C[C@@H](O)CN2C(=O)[C@H](Cc2c[nH]c3ccc(Cl)cc23)NC(=O)[C@H](Cc2c[nH]c3ccccc23)NC(=O)[C@H](CC(=O)O)NC(C)=O)CSCc2cccc(n2)CSC[C@@H](C(N)=O)NC1=O [GIP-376, Ac-Asp-Trp-5Clw-Hyp-Arg-leu-[Cys(2Lut)-Thp-Leu-Ile-Cys]-NH2] (Ac-DW[Trp(5-Cl)][Hyp]R[dL]C[Thp]LIC-NH2; linker 7-11 via Pyridine(2,6-diCH2))	A (t1/2 values>15 min)	1 to 7.94 nM	–	< 10 nM	–
CC[C@H](C)[C@@H]1NC(=O)[C@H](CC(C)C)NC(=O)C2(CCN(C(=O)CN3CCN(CC(=O)O)CCN(CC(=O)O)CCN(CC(=O)O)CC3)CC2)NC(=O)[C@@H](NC(=O)[C@@H](CC(C)C)NC(=O)[C@H](CCC(=O)O)NC(=O)[C@@H]2C[C@@H](NC(=O)CCCC(=O)NC[C@H](O)[C@@H](O)[C@H](O)[C@H](O)CO)CN2C(=O)[C@H](Cc2c[nH]c3ccc(Cl)cc23)NC(=O)[C@H](Cc2c[nH]c3ccccc23)NC(=O)[C@H](CC(=O)O)NC(=O)CN2CCC(NC(=O)CCCC(=O)NC[C@H](O)[C@@H](O)[C@H](O)[C@H](O)CO)CC2)CSCc2cccc(n2)CSC[C@@H](C(=O)NC2CCN(CC(=O)N[C@H](CCC(=O)NC[C@H](O)[C@@H](O)[C@H](O)[C@H](O)CO)C(N)=O)CC2)NC1=O [GIP-006, AGLU-Glutar-APAc-Asp-Trp-5Clw-Tap(AGLU-Glutar)-Glu-leu-[Cys(2Lut)-Apc(DOTA)-Leu-Ile-Cys]-APAc-glu(AGLU)-NH2] ({NH(1-deoxy-D-glucityl)-Glutaryl}-[X1]DW[Trp(5-Cl)][Pro(trans-4-NH2)]([Glutaryl-NH(1-deoxy-D-glucityl)])E[dL]C[Api](DOTA)LIC[X1][dE](NH(1-deoxy-D-glucityl))-NH2; linker 8-12 via Pyridine(2,6-diCH2))	A (t1/2 values>15 min)	< 1 nM	< 10 nM	–	–
B1	–	–	–	–	> 8 pic50
B2	–	–	–	–	> 8 pic50
